pIC50: −log10 of the molar value.
Key:
BRD4 BD2 = molecular target: T1, BRD4 BD2 (Homo sapiens, UniProt O60885); test: AlphaScreen binding assay, BRD4 Bromodomain 2
T1 construct: made in house
How it was run: (§1)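 Compound dilution series were mixed with His-tagged BRD4 bromodomain and biotinylated tetra-acetylated H4 (1-21) peptide at pH 7.3 (BD1 and peptide at 50 nM, BD2 and peptide at 100 nM). Donor and acceptor beads were then added, and plates were equilibrated at least 1 h before reading. IC50 values were fitted with a four-parameter logistic model.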

BRD4 BD1 = molecular target: T2, BRD4 BD1 (Homo sapiens, UniProt O60885); test: AlphaScreen binding assay, BRD4 Bromodomain 1
T2 construct: made in house
How it was run: as §1

MV4-11 cells = test: Oncology cell growth assay (3-day proliferation, CellTiter-Glo); type: cell-based; settings: Homo sapiens, MV4-11, 72 h, AML cell line MV4-11, 72 hours, compounds grouped by IC50 range, read-out: MV4-11 IC50 (inhibition of proliferation, gIC50)
How it was run: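 72 h, 37° C, 5% CO2; MV4-11, 3000 cells/well, RPMI 1640 + 10% FBS. Compound final 10, 3.3, 1.1, 0.37, 0.12, 0.041, 0.013, 0.0045 μM. Readout CellTiter-Glo luminescence; gIC50 by 4-parameter logistic fit, normalised to DMSO and no-cell background.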

Compound	pIC50 (BRD4 BD2)	pIC50 (BRD4 BD1)	pIC50 (MV4-11 cells)
COC(=O)N1c2ccc(-c3cnn(CC(C)(C)O)c3)cc2N(C(=O)Oc2ccc(F)cc2)C[C@@H]1C [Example I-1023]	> 7.30	6.00 to 7.00	< 6.30
COC(=O)N1c2ccc(-c3cnn(C(C)(C)CO)c3)cc2N(C(=O)Oc2ccc(F)cc2)C[C@@H]1C [Example I-1024]	> 7.30	6.00 to 7.00	6.30 to 7.00
COC(=O)N1c2ccc(-c3cnn(CCC#N)c3)cc2N(C(=O)Oc2ccc(F)cc2)C[C@@H]1C [Example I-1025]	> 7.30	6.00 to 7.00	< 6.30
CC(=O)N1c2ccc(-c3ccc4c(c3)CCN4S(C)(=O)=O)cc2N(C(=O)Oc2ccc(F)cc2)C[C@@H]1C [Example I-1026]	6.30 to 7.30	6.00 to 7.00	6.30 to 7.00
CCS(=O)(=O)c1ccc(-c2ccc3c(c2)N(C(=O)C2CC2)C[C@H](C)N3C(C)=O)cc1 [Example I-1027]	6.30 to 7.30	5.00 to 6.00	6.30 to 7.00
CCS(=O)(=O)c1ccc(-c2ccc3c(c2)N(C(=O)C2CCC2)C[C@H](C)N3C(C)=O)cc1 [Example I-1028]	6.30 to 7.30	5.00 to 6.00	< 6.30
CCOC(=O)N1C[C@H](C)N(C(C)=O)c2ccc(-c3ccc(S(=O)(=O)CC)cc3)cc21 [Example I-1029]	6.30 to 7.30	5.00 to 6.00	6.30 to 7.00
CCS(=O)(=O)c1ccc(-c2ccc3c(c2)N(C(=O)OC(C)C)C[C@H](C)N3C(C)=O)cc1 [Example I-1030]	6.30 to 7.30	6.00 to 7.00	6.30 to 7.00
CC(=O)N1c2ccc(-c3ccc(S(=O)(=O)C4CC4)cc3)cc2N(C(=O)C2CC2)C[C@@H]1C [Example I-1031]	6.30 to 7.30	5.00 to 6.00	6.30 to 7.00
CC(=O)N1c2ccc(-c3ccc(S(=O)(=O)C4CC4)cc3)cc2N(C(=O)C2CCC2)C[C@@H]1C [Example I-1032]	6.30 to 7.30	5.00 to 6.00	6.30 to 7.00
CCOC(=O)N1C[C@H](C)N(C(C)=O)c2ccc(-c3ccc(S(=O)(=O)C4CC4)cc3)cc21 [Example I-1033]	6.30 to 7.30	6.00 to 7.00	6.30 to 7.00
CC(=O)N1c2ccc(-c3ccc(S(=O)(=O)C4CC4)cc3)cc2N(C(=O)OC(C)C)C[C@@H]1C [Example I-1034]	6.30 to 7.30	6.00 to 7.00	6.30 to 7.00
CC(=O)N1c2ccc(-c3ccc(S(=O)(=O)NCCO)cc3)cc2N(C(=O)C2CC2)C[C@@H]1C [Example I-1035]	6.30 to 7.30	5.00 to 6.00	< 6.30
CC(=O)N1c2ccc(-c3ccc(S(=O)(=O)NCCO)cc3)cc2N(C(=O)C2CCC2)C[C@@H]1C [Example I-1036]	6.30 to 7.30	5.00 to 6.00	6.30 to 7.00
CCOC(=O)N1C[C@H](C)N(C(C)=O)c2ccc(-c3ccc(S(=O)(=O)NCCO)cc3)cc21 [Example I-1037]	6.30 to 7.30	5.00 to 6.00	6.30 to 7.00
CC(=O)N1c2ccc(-c3ccc(S(=O)(=O)NCCO)cc3)cc2N(C(=O)OC(C)C)C[C@@H]1C [Example I-1038]	6.30 to 7.30	6.00 to 7.00	6.30 to 7.00
CC(=O)N1c2ccc(-c3cccc(S(N)(=O)=O)c3)cc2N(C(=O)C2CC2)C[C@@H]1C [Example I-1039]	> 7.30	5.00 to 6.00	6.30 to 7.00
CC(=O)N1c2ccc(-c3cccc(S(N)(=O)=O)c3)cc2N(C(=O)C2CCC2)C[C@@H]1C [Example I-1040]	> 7.30	5.00 to 6.00	6.30 to 7.00
CCOC(=O)N1C[C@H](C)N(C(C)=O)c2ccc(-c3cccc(S(N)(=O)=O)c3)cc21 [Example I-1041]	6.30 to 7.30	5.00 to 6.00	6.30 to 7.00

Compound	pIC50 (BRD4 BD2)	pIC50 (BRD4 BD1)	pIC50 (MV4-11 cells)
CC(=O)N1c2ccc(-c3cccc(S(N)(=O)=O)c3)cc2N(C(=O)OC(C)C)C[C@@H]1C [Example I-1042]	6.30 to 7.30	5.00 to 6.00	6.30 to 7.00
CC(=O)N1c2ccc(-c3cccc(NS(C)(=O)=O)c3)cc2N(C(=O)C2CC2)C[C@@H]1C [Example I-1043]	6.30 to 7.30	5.00 to 6.00	< 6.30
CC(=O)N1c2ccc(-c3cccc(NS(C)(=O)=O)c3)cc2N(C(=O)C2CCC2)C[C@@H]1C [Example I-1044]	6.30 to 7.30	5.00 to 6.00	< 6.30
CCOC(=O)N1C[C@H](C)N(C(C)=O)c2ccc(-c3cccc(NS(C)(=O)=O)c3)cc21 [Example I-1045]	6.30 to 7.30	5.00 to 6.00	< 6.30
CC(=O)N1c2ccc(-c3cccc(S(=O)(=O)N(C)C)c3)cc2N(C(=O)C2CC2)C[C@@H]1C [Example I-1046]	6.30 to 7.30	5.00 to 6.00	< 6.30
CC(=O)N1c2ccc(-c3cccc(S(=O)(=O)N(C)C)c3)cc2N(C(=O)C2CCC2)C[C@@H]1C [Example I-1047]	6.30 to 7.30	5.00 to 6.00	< 6.30
CCOC(=O)N1C[C@H](C)N(C(C)=O)c2ccc(-c3cccc(S(=O)(=O)N(C)C)c3)cc21 [Example I-1048]	6.30 to 7.30	5.00 to 6.00	< 6.30
CC(=O)N1c2ccc(-c3cccc(S(=O)(=O)N(C)C)c3)cc2N(C(=O)OC(C)C)C[C@@H]1C [Example I-1049]	6.30 to 7.30	5.00 to 6.00	6.30 to 7.00
CC(=O)N1c2ccc(-c3cccc(S(C)(=O)=O)c3)cc2N(C(=O)C2CC2)C[C@@H]1C [Example I-1050]	6.30 to 7.30	5.00 to 6.00	< 6.30
CC(=O)N1c2ccc(-c3cccc(S(C)(=O)=O)c3)cc2N(C(=O)C2CCC2)C[C@@H]1C [Example I-1051]	6.30 to 7.30	5.00 to 6.00	< 6.30
CCOC(=O)N1C[C@H](C)N(C(C)=O)c2ccc(-c3cccc(S(C)(=O)=O)c3)cc21 [Example I-1052]	6.30 to 7.30	5.00 to 6.00	< 6.30
CC(=O)N1c2ccc(-c3cccc(S(C)(=O)=O)c3)cc2N(C(=O)OC(C)C)C[C@@H]1C [Example I-1053]	6.30 to 7.30	5.00 to 6.00	6.30 to 7.00
CCS(=O)(=O)Nc1cccc(-c2ccc3c(c2)N(C(=O)C2CC2)C[C@H](C)N3C(C)=O)c1 [Example I-1054]	6.30 to 7.30	5.00 to 6.00	6.30 to 7.00
CCS(=O)(=O)Nc1cccc(-c2ccc3c(c2)N(C(=O)C2CCC2)C[C@H](C)N3C(C)=O)c1 [Example I-1055]	6.30 to 7.30	5.00 to 6.00	< 6.30
CCOC(=O)N1C[C@H](C)N(C(C)=O)c2ccc(-c3cccc(NS(=O)(=O)CC)c3)cc21 [Example I-1056]	6.30 to 7.30	5.00 to 6.00	< 6.30
CCS(=O)(=O)Nc1cccc(-c2ccc3c(c2)N(C(=O)OC(C)C)C[C@H](C)N3C(C)=O)c1 [Example I-1057]	6.30 to 7.30	6.00 to 7.00	6.30 to 7.00
CC(=O)N1c2ccc(-c3ccc(N4CCOCC4)cc3)cc2N(C(=O)C2CC2)C[C@@H]1C [Example I-1058]	6.30 to 7.30	5.00 to 6.00	6.30 to 7.00
CC(=O)N1c2ccc(-c3ccc(N4CCOCC4)cc3)cc2N(C(=O)C2CCC2)C[C@@H]1C [Example I-1059]	6.30 to 7.30	5.00 to 6.00	6.30 to 7.00
CCOC(=O)N1C[C@H](C)N(C(C)=O)c2ccc(-c3ccc(N4CCOCC4)cc3)cc21 [Example I-1060]	6.30 to 7.30	5.00 to 6.00	< 6.30

Reference: patent US10703764B2, “Benzopiperazine compositions as BET bromodomain inhibitors” (FORMA Therapeutics, Inc., priority 2013, dated 2020)
